Results taken from patent EP0464233A1, “Pharmaceutical combinations against malaria” (priority 1990, dated 1992).
Like-named read-outs stand apart in the source and are kept apart here.

Tested on: P. berghei NS (resistant to chlorquine)
Experiment: 4-day suppressive test (blood schizontocidal activity), chess-board / isobologram analysis
Format: in vivo, Plasmodium berghei
Details: for group mean of parasitaemia as of control: male Swiss mice, D + 4, ± standard error; for parasitaemia: Arteether alone, male mouse, Table II (extended doses); for ED50 / ED90: Plasmodium berghei, in Mus musculus, po
Method: The evaluation of blood schizontocidal activities was carried out following the procedure described herein after using the Chloroquine-resistant strain of P. berghei (NS) strain. (Chawira A. N., et al. 1987, Trans, R. Soc. Trop. Med. Hyg. 81 : 554-558).
The methodology followed in the present study was adopted form "4- day suppressive test" (ref. Peters, W.; 1987, Chemotherapy and Drug Resistance in Malaria, Vol. 1, p 111). The experimental data has been analysed by Chess Board Method in the form of an isobologram, (Ref. Chawira A. N., and Warhurst D. C.; 1987, J. Trop. Med. Hyg. 90 : 1-8). ED₅₀ and ED₉₀ was determined using a log-probit method.
Host .. Swiss Mice (20-22 gms) Sex .. Male Parasit .. P. berghei NS (resistant to chlorquine) Route of Infection .. Intravenous Route of drug Administration .. per os
Artheether : A few drops of Kardi oil and Tween^R 80 were added to Arteether to make a paste, followed by 0.5 % Tylose^R (Carboxy methyl cellulose) solution. A homogenous suspension was prepared using a tissue homogenizer in Teflon^R coated glass tube. […] Mefloquine HCl : A solution was prepared in 0.5 % Tylose using a tissue homogenizer.
Drug was administered as follows: (+ 2 H, 24 H, 48 H, 72 H) Each day one dose for 4 days
Slides were drawn from individual mouse and stained with Giemsa on D + 4. The slides were examined under oil immersion lens and parasitaemia was recorded from 15 fields at random. The average of infected and uninfected erythrocytes was determined for each animal. Finally the average parasitaemia of the whole group was determined and considered as 100 % for comparison purposes with the treated group.
At least 5000 to 7500 erythrocytes were examined at random to determine the parasitaemia. In certain cases, where parasitaemia was extremely low 10000 to 15000 erythrocytes were examined.

Row | SMILES | group mean of parasitaemia as of control (Arteether 0.25 mg/kg X 4, p.o., no Quinine) | group mean of parasitaemia as of control (Arteether 0.5 mg/kg X 4, p.o., no Quinine) | group mean of parasitaemia as of control (Arteether 1.0 mg/kg X 4, p.o., no Quinine) | group mean of parasitaemia as of control (Arteether 2.0 mg/kg X 4, p.o., no Quinine) | parasitaemia (Dose 2.0 mg/kg X 4) | parasitaemia (Dose 3.0 mg/kg X 4) | parasitaemia (Dose 4.0 mg/kg X 4) | parasitaemia (Dose 5.0 mg/kg X 4) | ED50 [mg/kg] | ED90 [mg/kg] | ED50 (read-out: ED50 of Arteether) [mg/kg] | ED90 (read-out: ED90 of Arteether) [mg/kg] | ED50 (read-out: ED50 of Quinine) [mg/kg] | ED90 (read-out: ED90 of Quinine) [mg/kg] | group mean of parasitaemia as of control (Quinine 25 mg/kg X 4, p.o., no Arteether) | group mean of parasitaemia as of control (Quinine 37.5 mg/kg X 4, p.o., no Arteether) | group mean of parasitaemia as of control (Quinine 50 mg/kg X 4, p.o., no Arteether)
1 | CCO[C@H]1O[C@@H]2O[C@@]3(C)CC[C@H]4[C@H](C)CC[C@@H]([C@H]1C)[C@@]24OO3 [Arteether] | 90 ± 13.9 | 87 ± 10.8 | 84 ± 10.8 | 77 ± 1.27 | 82 | 57 | 25 | 12 | 2.8 | 5.2 | 2.8 | 5.2 | – | – | – | – | –
2 | C=C[C@H]1C[N@@]2CC[C@H]1C[C@H]2[C@H](O)c1ccnc2ccc(OC)cc12 [Quinine] | – | – | – | – | – | – | – | – | – | – | – | – | 61 | 110 | 92 ± 2.36 | 85 ± 5.8 | 70 ± 11.8
